This is an account of results in patent US20220389009A1, “SUBSTITUTED 1,6-NAPHTHYRIDINE INHIBITORS OF CDK5” (Goldfinch Bio, Inc., priority 2019, published 2022).

The structures appear in SMILES notation. Read-outs that look alike come from different tables or passages of the source.

One assay addresses CDK5/p25 (Homo sapiens, UniProt Q00535). As to the kind of experiment: CDK5 mobility shift assay (enzymatic activity of CDK5/p25). The format is biochemical. The conditions noted are these: for CDK5/CDK2 specificity: fold more active against CDK5 than CDK2. As for the experimental part: (§1) Compound potency was measured via a change in the enzymatic activity of CDK5/p25, and optionally of CDK2/CycA2. Enzymes, CDK5/p25 and CDK2/CycA2, were sourced from Carna Biosciences (Cat #04-106 and 04-103, respectively). Test compound stocks were diluted in 100% DMSO and serially diluted 3-fold in a 384-well plate using a TECAN EVO200 (TECAN). Staurosporine was used as a reference control compound in all assays.
(§2) Twenty nL of compound were transferred into a 384-well plate (Greiner 781201) using an Echo550 (Labcyte Inc). Enzyme, ATP, and 10 mM MgCl2 were preincubated at room temperature with the compound in assay buffer (50 mM HEPES pH 7.5, 1 mM EGTA, 0.01% Brij-35, 0.05% BSA, 2 mM DTT) for 30 minutes. Peptide substrate (FL peptide 29 (Perkin Elmer) for CDK5/p25; FL Peptide 18 (Perkin Elmer) for CDK2/CycA2) was added to initiate the reaction. The final assay contained 0.154 nM CDK5/p25 or 1.25 nM CDK2/CycA2, […] (for CDK5/p25) or 37 μM (for CDK2/CycA2) ATP, and 1.5 μM of the appropriate peptide substrate. The final DMSO concentration was <1%.
(§3) The CDK5/p25 reaction was incubated at room temperature for 60 min. The CDK2/CycA2 reaction was incubated at room temperature for 120 min. The reactions were quenched by the addition of 70 μL stopping buffer containing 0.5 M EDTA. Samples were analyzed using the EZ Reader (Perkin Elmer).
(§4) The results were expressed as % vehicle, where % vehicle=100×(U−C2)/(C1−C2), where U is the signal of sample, C1 is the average of the high controls (signal with no compound added), and C2 is the average of low controls (signal with the buffer in place of enzyme). The ICso is determined by fitting the percentage of inhibition as a function of compound concentrations using a 4-parameter fit defined as follows.
(§5) Y=Bottom+(Top−Bottom)/(1+10^((LobIC50-X)*Hill Slope)), where X is the log of the compound concentration, Y is the % vehicle or response at X, Top and Bottom are the plateaus in the same units as Y, and the Hill's Slope is unitless, and the ICso is the half-maximal inhibitory concentration.

The next assay concerns the target CDK2/CycA2 (Homo sapiens, UniProt P24941). Nature of the assay: CDK2 mobility shift assay (enzymatic activity of CDK2/CycA2). It counts as biochemical. The method, then: as §1, §2, §3, §4, §5
The mark [1] stands for this setting: 0.154 nM CDK5/p25, FL peptide 29, 60 min at room temperature, read-out: CDK5 IC50.
Setting [2] is: 1.25 nM CDK2/CycA2, 37 μM ATP, FL Peptide 18, 120 min at room temperature, read-out: CDK2 IC50.

Chain of CDK5/p25 (Q00535 whole entry): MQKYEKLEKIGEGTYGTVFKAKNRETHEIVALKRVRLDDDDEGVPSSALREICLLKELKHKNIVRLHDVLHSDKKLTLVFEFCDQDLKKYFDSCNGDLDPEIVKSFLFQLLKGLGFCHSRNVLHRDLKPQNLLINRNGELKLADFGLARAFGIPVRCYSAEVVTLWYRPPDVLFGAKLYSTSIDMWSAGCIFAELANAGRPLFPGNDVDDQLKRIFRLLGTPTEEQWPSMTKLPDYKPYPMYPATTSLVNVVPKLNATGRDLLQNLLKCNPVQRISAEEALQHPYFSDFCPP
Chain of CDK5/p25 (Q15078 99-307 partner limits assumed): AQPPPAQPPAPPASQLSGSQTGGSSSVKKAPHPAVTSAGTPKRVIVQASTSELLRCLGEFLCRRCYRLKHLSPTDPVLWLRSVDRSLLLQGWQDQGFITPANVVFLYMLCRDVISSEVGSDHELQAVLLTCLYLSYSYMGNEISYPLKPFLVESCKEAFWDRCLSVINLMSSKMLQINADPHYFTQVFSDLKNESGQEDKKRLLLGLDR

A word on the IC50: it is the concentration that gives 50% inhibition. For `CN1CCC(C(O)(c2ccc3cnc(Nc4ccc(-n5cccn5)cc4F)cc3n2)C(F)(F)F)CC1` (single isomer, unassigned) [Compound 349, 2,2,2-trifluoro-1-(7-((2-fluoro-4-(1H-pyrazol-1-yl)phenyl)amino)-1,6-naphthyridin-2-yl)-1-(1-methylpiperidin-4-yl)ethan-1-ol], the values for the IC50 at CDK5/p25 (setting [1]) and on CDK2/CycA2 (setting [2]) were less than 10 nM and 10 to 100 nM, respectively. On CDK5/p25, the CDK5/CDK2 specificity entry was “++ (greater than 10-fold and less than or equal to 100-fold more active against CDK5 than CDK2)”.

Regarding `CN1CCC(C(C)(F)c2ccc3cnc(Nc4ccc(-n5cccn5)cc4F)cc3n2)CC1` (single isomer, unassigned) [Compound 359, 2-[1-fluoro-1-(1-methylpiperidin-4-yl)ethyl]-N-[2-fluoro-4-(pyrazol-1-yl)phenyl]-1,6-naphthyridin-7-amine], the IC50 at CDK5/p25 (setting [1]) is less than 10 nM; at CDK2/CycA2 (setting [2]), 10 to 100 nM. Also, the CDK5/CDK2 specificity entry on CDK5/p25 was “++ (greater than 10-fold and less than or equal to 100-fold more active against CDK5 than CDK2)”.

Consider `CN1CCC(C(C)(F)c2ccc3cnc(Nc4ccc(-n5cccn5)cc4F)cc3n2)CC1` (single isomer, unassigned) [Compound 363, 2-[1-fluoro-1-(1-methylpiperidin-4-yl)ethyl]-N-[2-fluoro-4-(pyrazol-1-yl)phenyl]-1,6-naphthyridin-7-amine], for which the IC50 at CDK5/p25 (setting [1]) was 10 to 100 nM; at CDK2/CycA2 (setting [2]) it was more than 1000 nM. Moreover, the CDK5/CDK2 specificity result at CDK5/p25 is “++ (greater than 10-fold and less than or equal to 100-fold more active against CDK5 than CDK2)”.

Regarding `COC(c1ccc2cnc(Nc3ccc(-n4cccn4)cc3F)cc2n1)C1CCN(C)CC1` (single isomer, unassigned) [Compound 387, N-[2-fluoro-4-(pyrazol-1-yl)phenyl]-2-[methoxy(1-methylpiperidin-4-yl)methyl]-1,6-naphthyridin-7-amine], the IC50 at CDK5/p25 (setting [1]) was 100 to 1000 nM; at CDK2/CycA2 (setting [2]) it was more than 1000 nM. Besides, on CDK5/p25, the CDK5/CDK2 specificity result was “++ (greater than 10-fold and less than or equal to 100-fold more active against CDK5 than CDK2)”.

As for `COC(c1ccc2cnc(Nc3ccc(-n4cccn4)cc3F)cc2n1)C1CCN(C)CC1` (single isomer, unassigned) [Compound 391, N-[2-fluoro-4-(pyrazol-1-yl)phenyl]-2-[methoxy(1-methylpiperidin-4-yl)methyl]-1,6-naphthyridin-7-amine], the IC50 on CDK5/p25 (setting [1]) was 100 to 1000 nM; on CDK2/CycA2 (setting [2]) it was more than 1000 nM. Also, the CDK5/CDK2 specificity entry on CDK5/p25 was “++ (greater than 10-fold and less than or equal to 100-fold more active against CDK5 than CDK2)”.

As for `CN(c1ccc2cnc(Nc3ccccc3F)cc2n1)C1CCNCC1` [Compound 100, N7-(2-fluorophenyl)-N2-methyl-N2-(piperidin-4-yl)-1,6-naphthyridine-2,7-diamine], the IC50 was 100 to 1000 nM at CDK5/p25 (setting [1]) and more than 1000 nM at CDK2/CycA2 (setting [2]). The CDK5/CDK2 specificity result at CDK5/p25 is “++ (greater than 10-fold and less than or equal to 100-fold more active against CDK5 than CDK2)”.

Turning to `O=C(O)CN(c1ccc2cnc(Nc3ccc(-n4ccc(CO)n4)cc3F)cc2n1)C1CCNCC1` [Compound 101, [[7-([2-fluoro-4-[3-(hydroxymethyl)pyrazol-1-yl]phenyl]amino)-1,6-naphthyridin-2-yl](piperidin-4-yl)amino]acetic acid], the results for the IC50 on CDK5/p25 (CDK5 IC50) and on CDK2/CycA2 (CDK2 IC50) were 10 to 100 nM and more than 1000 nM, respectively. Further, the CDK5/CDK2 specificity result at CDK5/p25 is “++ (greater than 10-fold and less than or equal to 100-fold more active against CDK5 than CDK2)”.

Regarding `OCc1ccn(-c2ccc(Nc3cc4nc(NC5CCNCC5)ccc4cn3)c(F)c2)n1` [Compound 102, [1-(3-fluoro-4-[[2-(piperidin-4-ylamino)-1,6-naphthyridin-7-yl]amino]phenyl)pyrazol-3-yl]methanol], the results for the IC50 at CDK5/p25 (setting [1]) and at CDK2/CycA2 (setting [2]) were less than 10 nM and 100 to 1000 nM, respectively. The CDK5/CDK2 specificity result on CDK5/p25 is “++ (greater than 10-fold and less than or equal to 100-fold more active against CDK5 than CDK2)”.
